US20250171438A1 (Agios Pharmaceuticals, Inc., priority 2022, published 2025)

target: T1, human PAH with the R408W mutation (Homo sapiens, UniProt P00439, R408W); assay: Cell Based Phenylalanine Flux Assay; design: scale not given here; details: A375 cells expressing human R408W PAH; 24 hrs compound incubation; 13C-Tyrosine by LC-MS; average where tested multiple times; read-out: AC50
T1 construct: expressed in transfected cells
T1 sequence (P00439 1-452 R408W): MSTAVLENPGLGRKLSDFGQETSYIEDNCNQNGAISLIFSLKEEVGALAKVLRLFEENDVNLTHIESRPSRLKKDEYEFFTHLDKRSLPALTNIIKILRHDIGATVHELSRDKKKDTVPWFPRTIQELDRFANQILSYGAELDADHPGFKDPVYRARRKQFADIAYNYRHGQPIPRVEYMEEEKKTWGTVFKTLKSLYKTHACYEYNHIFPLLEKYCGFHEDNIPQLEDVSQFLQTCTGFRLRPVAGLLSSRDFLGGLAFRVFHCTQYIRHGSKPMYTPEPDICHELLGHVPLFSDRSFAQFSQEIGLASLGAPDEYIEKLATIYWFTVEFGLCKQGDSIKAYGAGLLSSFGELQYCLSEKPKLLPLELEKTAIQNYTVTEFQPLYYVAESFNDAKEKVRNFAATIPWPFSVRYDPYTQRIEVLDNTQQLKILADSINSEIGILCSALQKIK

Molecule | AC50 [nM]
O=C(C1CC1)N1CCc2[nH]cnc2[C@@H]1c1nc2ccccc2s1 [Example 1074, (R)-(4-(benzo[d]thiazol-2-yl)-6,7-dihydro-1H-imidazo[4,5-c]pyridin-5(4H)-yl)(cyclopropyl)methanone] | > 5000
O=C(CCC1CC1)N1CCc2[nH]cnc2[C@@H]1c1nc2ccc(Br)cc2[nH]1 [Example 934, (R)-1-(4-(6-bromo-1H-benzo[d]imidazol-2-yl)-6,7-dihydro-1H-imidazo[4,5-c]pyridin-5(4H)-yl)-3-cyclopropylpropan-1-one] | 1000 to 5000
O=C(c1cnn2ccc(Br)cc12)N1CCc2[nH]cnc2[C@H]1c1nc2ccccc2[nH]1 [Example 925, (S)-(4-(1H-benzo[d]imidazol-2-yl)-6,7-dihydro-3H-imidazo[4,5-c]pyridin-5(4H)-yl)(5-bromopyrazolo[1,5-a]pyridin-3-yl)methanone] | 1000 to 5000
Fc1ccc2nc([C@@H]3c4nc[nH]c4CCN3Cc3nccs3)[nH]c2c1 [Example 974, (S)-2-((4-(6-fluoro-1H-benzo[d]imidazol-2-yl)-6,7-dihydro-1H-imidazo[4,5-c]pyridin-5(4H)-yl)methyl)thiazole] | < 500
Cc1csc(C(=O)N2CCc3[nH]cnc3[C@H]2c2nc3ccccc3s2)n1 [Example 1044] | 1000 to 5000
O=C(CCc1nccs1)N1CCc2[nH]cnc2[C@H]1c1nc2ccc(Cl)cc2[nH]1 [Example 910, (S)-1-(4-(6-chloro-1H-benzo[d]imidazol-2-yl)-6,7-dihydro-1H-imidazo[4,5-c]pyridin-5(4H)-yl)-3-(thiazol-2-yl)propan-1-one] | 500 to 1000

Results, then the molecule that gave them:

AC50 [nM] | Molecule
< 500 | O=C(N1CCC1)N1CCc2[nH]cnc2[C@H]1c1nc2ccccc2s1 [Example 1691, (S)-azetidin-1-yl(4-(benzo[d]thiazol-2-yl)-6,7-dihydro-1H-imidazo[4,5-c]pyridin-5(4H)-yl)methanone]
1000 to 5000 | O=C(c1cnn2cc(C3CC3)ccc12)N1CCc2[nH]cnc2[C@@H]1c1nc2ccccc2s1 [Example 1192, (R)-(4-(benzo[d]thiazol-2-yl)-6,7-dihydro-1H-imidazo[4,5-c]pyridin-5(4H)-yl)(6-cyclopropylpyrazolo[1,5-a]pyridin-3-yl)methanone]
1000 to 5000 | Cc1c(-c2ncc(C(=O)N3CCc4[nH]cnc4[C@@H]3c3nc4ccccc4s3)o2)cnn1C [Example 1384, (R)-(4-(benzo[d]thiazol-2-yl)-6,7-dihydro-1H-imidazo[4,5-c]pyridin-5(4H)-yl)(2-(1,5-dimethyl-1H-pyrazol-4-yl)oxazol-5-yl)methanone]
> 5000 | (R)-2-((4-(6-fluoro-1H-benzo[d]imidazol-2-yl)-6,7-dihydro-1H-imidazo[4,5-c]pyridin-5(4H)-yl)methyl)thiazole [Example 972]
< 500 | O=C(c1ocnc1C(F)F)N1CCc2[nH]cnc2[C@H]1c1nc2ccccc2s1 [Example 1539]
1000 to 5000 | O=C(c1cnc(-c2ccc(F)cc2)o1)N1CCc2[nH]cnc2[C@@H]1c1nc2ccccc2s1 [Example 2118, (R)-(4-(benzo[d]thiazol-2-yl)-6,7-dihydro-1H-imidazo[4,5-c]pyridin-5(4H)-yl)(2-(4-fluorophenyl)oxazol-5-yl)methanone]
> 5000 | CC1(C(=O)N2CCc3[nH]cnc3[C@@H]2c2nc3ccccc3s2)CC1(F)F (single isomer, unassigned) [Example 1290]
500 to 1000 | O=C(CC1CC1)N1CCc2[nH]cnc2[C@@H]1c1nc2ccc(Br)cc2s1 [Example 1147, (R)-1-(4-(6-bromobenzo[d]thiazol-2-yl)-6,7-dihydro-1H-imidazo[4,5-c]pyridin-5(4H)-yl)-2-cyclopropylethanone]
< 500 | CC(C)(O)c1ccc2c(C(=O)N3CCc4[nH]cnc4[C@H]3c3nc4ccccc4s3)cnn2c1 [Example 1473]
1000 to 5000 | Cc1nnc(C(=O)N2CCc3[nH]cnc3[C@H]2c2nc3c(F)cccc3s2)s1 [Example 1252, (S)-(4-(4-fluorobenzo[d]thiazol-2-yl)-6,7-dihydro-1H-imidazo[4,5-c]pyridin-5(4H)-yl)(5-methyl-1,3,4-thiadiazol-2-yl)methanone]
1000 to 5000 | Cc1nc(CC2CC2)oc1C(=O)N1CCc2[nH]cnc2[C@@H]1c1nc2ccccc2s1 [Example 1400, (R)-(4-(benzo[d]thiazol-2-yl)-6,7-dihydro-1H-imidazo[4,5-c]pyridin-5(4H)-yl)(2-(cyclopropylmethyl)-4-methyloxazol-5-yl)methanone]
1000 to 5000 | c1cnc(N2CCc3[nH]cnc3[C@@H]2c2nc3ccccc3s2)nc1 [Example 1437, (R)-2-(5-(pyrimidin-2-yl)-4,5,6,7-tetrahydro-1H-imidazo[4,5-c]pyridin-4-yl)benzo[d]thiazole]
< 500 | c1ccc2sc([C@@H]3c4nc[nH]c4CCN3CCC3CC3)nc2c1 [Example 1276, (S)-2-(5-(2-cyclopropylethyl)-4,5,6,7-tetrahydro-1H-imidazo[4,5-c]pyridin-4-yl)benzo[d]thiazole]
> 5000 | O=C(c1ncc(-c2ccccc2)s1)N1CCc2[nH]cnc2[C@@H]1c1nc2ccccc2s1 [Example 1190, (R)-(4-(benzo[d]thiazol-2-yl)-6,7-dihydro-1H-imidazo[4,5-c]pyridin-5(4H)-yl)(5-phenylthiazol-2-yl)methanone]
1000 to 5000 | Cc1nc(C(C)C)oc1C(=O)N1CCc2[nH]cnc2[C@@H]1c1nc2ccccc2s1 [Example 1398, (R)-(4-(benzo[d]thiazol-2-yl)-6,7-dihydro-1H-imidazo[4,5-c]pyridin-5(4H)-yl)(2-isopropyl-4-methyloxazol-5-yl)methanone]
< 500 | Fc1ccc(-c2nnc(N3CCc4[nH]cnc4[C@H]3c3nc4ccccc4s3)o2)cc1 [Example 1491]
1000 to 5000 | O=C(c1cnc(C(F)F)s1)N1CCc2[nH]cnc2[C@@H]1c1nc2ccccc2s1 [Example 1522, (R)-(4-(benzo[d]thiazol-2-yl)-6,7-dihydro-1H-imidazo[4,5-c]pyridin-5(4H)-yl)(2-(difluoromethyl)thiazol-5-yl)methanone]
< 500 | CN1CCN(c2nc(C(F)(F)F)c(C(=O)N3CCc4[nH]cnc4[C@@H]3c3nc4c(F)cccc4s3)o2)CC1 [Example 1624, (R)-(4-(4-fluorobenzo[d]thiazol-2-yl)-6,7-dihydro-1H-imidazo[4,5-c]pyridin-5(4H)-yl)(2-(4-methylpiperazin-1-yl)-4-(trifluoromethyl)oxazol-5-yl)methanone]
1000 to 5000 | CC(C)n1ncc(C(=O)N2CCc3[nH]cnc3[C@@H]2c2nc3c(F)cccc3s2)c1C(F)F [Example 2002, (R)-(5-(difluoromethyl)-1-isopropyl-1H-pyrazol-4-yl)(4-(4-fluorobenzo[d]thiazol-2-yl)-6,7-dihydro-1H-imidazo[4,5-c]pyridin-5(4H)-yl)methanone]
500 to 1000 | Cc1cccc2sc([C@@H]3c4nc[nH]c4CCN3C(=O)c3cnn(C)c3C(F)F)nc12 [Example 2029, (S)-(5-(difluoromethyl)-1-methyl-1H-pyrazol-4-yl)(4-(4-methylbenzo[d]thiazol-2-yl)-6,7-dihydro-1H-imidazo[4,5-c]pyridin-5(4H)-yl)methanone]
1000 to 5000 | CC(C)(O)c1nc(C2CC2)c(C(=O)N2CCc3[nH]cnc3[C@@H]2c2nc3c(F)cccc3s2)o1 [Example 1538, (R)-(4-cyclopropyl-2-(2-hydroxypropan-2-yl)oxazol-5-yl)(4-(4-fluorobenzo[d]thiazol-2-yl)-6,7-dihydro-1H-imidazo[4,5-c]pyridin-5(4H)-yl)methanone]
1000 to 5000 | Cc1cccc2nc([C@H]3c4nc[nH]c4CCN3C(=O)c3cncs3)sc12 [Example 1315, (R)-(4-(7-methylbenzo[d]thiazol-2-yl)-6,7-dihydro-1H-imidazo[4,5-c]pyridin-5(4H)-yl)(thiazol-5-yl)methanone]
1000 to 5000 | O=C(N1CCC1)N1CCc2[nH]cnc2[C@@H]1c1nc2ccccc2s1 [Example 1692, (R)-azetidin-1-yl(4-(benzo[d]thiazol-2-yl)-6,7-dihydro-1H-imidazo[4,5-c]pyridin-5(4H)-yl)methanone]

same assay, conditions: A375 cells expressing human R408W PAH; 24 hrs with compound; 13C-Tyrosine by LC-MS; average where tested multiple times

Molecule | AC50
Cn1cc(C(C)(C)C(=O)N2CCc3[nH]cnc3C2c2nc3ccccc3s2)cn1 (centres unmarked) | E, E
O=C(c1c(C(F)(F)F)nn2c1CCCC2)N1CCc2[nH]cnc2C1c1nc2ccccc2s1 (centres unmarked) | E, E
COCc1ccc2c(C(=O)N3CCc4[nH]cnc4[C@@H]3c3nc4ccccc4s3)c(C(F)F)nn2c1 (single isomer, unassigned) | E, E

same assay, conditions: A375 cells expressing human R408W PAH; 24 hrs with compound; 13C-Tyrosine by LC-MS; average where tested multiple times; read-out: AC50

Molecule | AC50 [nM]
O=C(C1CC1)N1CCc2[nH]cnc2C1c1nc2ccc(F)cc2[nH]1 (centres unmarked) | 1000 to 5000
O=C(Cc1nccs1)N1CCc2[nH]cnc2C1c1nc2ccc(F)cc2[nH]1 (centres unmarked) | > 5000
CS(=O)(=O)c1ncoc1C(=O)N1CCc2[nH]cnc2C1c1nc2ccccc2s1 (centres unmarked) | > 5000
Nc1nnc(CCC(=O)N2CCc3[nH]cnc3C2c2nc3ccccc3[nH]2)s1 (centres unmarked) | > 5000
Cc1nc(-c2ccccn2)oc1C(=O)N1CCCc2[nH]cnc2C1c1nc2ccccc2s1 (centres unmarked) | 1000 to 5000
COc1ccc2c(C(=O)N3CCc4[nH]cnc4C3c3nc4ccccc4s3)cnn2c1 (centres unmarked) | > 5000
O=C(Cc1nccs1)N1CCc2[nH]cnc2C1c1nc2ccccc2[nH]1 (centres unmarked) | 1000 to 5000
O=C(c1cnn(CCO)c1Cl)N1CCc2[nH]cnc2C1c1nc2c(F)cccc2s1 (centres unmarked) | 1000 to 5000
CC(C)(O)Cn1cc(C(=O)N2CCc3[nH]cnc3C2c2nc3c(F)cccc3s2)cn1 (centres unmarked) | 1000 to 5000
